Source: ChEMBL document CHEMBL1201862, “PubChem BioAssay data set” (2004)
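Each compound was tested at five concentrations against cells in 96-well plates for 48 hours. Here, GI50 denotes the concentration required for 50% inhibition of growth.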 Calls of active or inactive are those of the source. No stated cut-off is given here; in the data, active = GI50 up to about 1.1 µM and inactive = higher.

Key:
Experiment in all cases: DTP human tumour cell line panel, 48 h
HT-29 = tested on: HT-29
SW-620 = tested on: SW-620
UO-31 = tested on: UO-31
M19-MEL = tested on: M19-MEL
NCI-H226 = tested on: NCI-H226
SK-MEL-28 = tested on: SK-MEL-28
DLD-1 = tested on: DLD-1
K562 = tested on: K562
SF-268 = tested on: SF-268
SN12C = tested on: SN12C
LOX IMVI = tested on: LOX IMVI
RXF 393 = tested on: RXF 393
DMS-273 = tested on: DMS-273
HCT-116 = tested on: HCT-116
A549 = tested on: A549
NCI-H522 = tested on: NCI-H522
HOP-62 = tested on: HOP-62
HOP-92 = tested on: HOP-92
PC-3 = tested on: PC-3
T47D = tested on: T47D

Measured: GI50

O=S(=O)(O)c1cc(/N=[N+](\[O-])c2ccc(/N=N/c3ccccc3)cc2S(=O)(=O)O)ccc1/C=C/c1ccc(/N=[N+](\[O-])c2ccc(/N=N/c3ccccc3)cc2S(=O)(=O)O)cc1S(=O)(=O)O
inactive: HT-29 > 100 µM | SW-620 > 100 µM | UO-31 > 100 µM | M19-MEL > 100 µM | NCI-H226 > 32.6 µM | SK-MEL-28 > 100 µM | DLD-1 > 100 µM | K562 > 100 µM | SF-268 > 100 µM | SN12C > 100 µM | LOX IMVI > 100 µM | RXF 393 > 100 µM | DMS-273 > 95.3 µM | HCT-116 > 100 µM | A549 > 100 µM | NCI-H522 > 100 µM | HOP-62 > 100 µM | HOP-92 > 100 µM

CC(=O)NC(CCCCN(Cc1ccccc1)C(=O)N(C)N=O)C(=O)NCc1ccccc1 (stereo not given)
inactive: HT-29 83.9 µM | SW-620 > 100 µM | UO-31 47.3 µM | M19-MEL > 100 µM | NCI-H226 36.5 µM | SK-MEL-28 > 100 µM | DLD-1 > 100 µM | K562 61 µM | SF-268 38.9 µM | SN12C > 100 µM | LOX IMVI > 100 µM | RXF 393 72.1 µM | DMS-273 97.3 µM | HCT-116 71.3 µM | A549 95.9 µM | NCI-H522 16.8 µM | HOP-62 > 100 µM | HOP-92 61.8 µM

C[C@]12Cc3cn[nH]c3C(=O)C1CC[C@@H]1C2CC[C@@]2(C)C1CC[C@]2(C)O (stereo not given in full)
inactive: HT-29 > 100 µM | SW-620 > 100 µM | UO-31 > 100 µM | M19-MEL > 100 µM | NCI-H226 > 100 µM | SK-MEL-28 > 100 µM | DLD-1 > 100 µM | K562 > 100 µM | SF-268 > 100 µM | SN12C > 100 µM | LOX IMVI > 100 µM | RXF 393 > 100 µM | DMS-273 > 100 µM | HCT-116 > 100 µM | A549 > 100 µM | NCI-H522 > 100 µM | HOP-62 > 100 µM | HOP-92 > 100 µM

CCc1cccc(C(C)C)c1NC(=O)CC1Sc2ccccc2NC1=O (stereo not given)
inactive: HT-29 55.6 µM | SW-620 13 µM | UO-31 43.3 µM | M19-MEL 40.6 µM | NCI-H226 > 100 µM | SK-MEL-28 > 100 µM | DLD-1 47.4 µM | K562 44.6 µM | SF-268 > 100 µM | SN12C > 100 µM | LOX IMVI 45 µM | RXF 393 41 µM | DMS-273 34 µM | HCT-116 56.4 µM | A549 49.2 µM | NCI-H522 33.4 µM | HOP-62 > 100 µM | HOP-92 39.5 µM

O=c1[nH]c(Br)nc2c(N3CCCCC3)c[nH]c12
inactive: HT-29 > 100 µM | SW-620 > 100 µM | UO-31 > 100 µM | M19-MEL > 100 µM | NCI-H226 > 100 µM | SK-MEL-28 > 100 µM | DLD-1 > 100 µM | K562 > 100 µM | SF-268 > 100 µM | SN12C > 100 µM | LOX IMVI > 100 µM | RXF 393 > 100 µM | DMS-273 > 100 µM | HCT-116 > 100 µM | A549 > 100 µM | NCI-H522 28.3 µM | HOP-62 > 100 µM | HOP-92 > 100 µM

CC(O)C(NC(=O)C(CS)NC(=O)C(CO)NC(=O)C(CCCCN)NC(=O)C(Cc1c[nH]c2ccccc12)NC(=O)C(Cc1ccc(O)cc1)NC(=O)C(CS)NC(=O)C(N)Cc1ccccc1)C(N)=O (stereo not given)
inactive: HT-29 > 25 µM | SW-620 > 25 µM | UO-31 > 25 µM | M19-MEL 26 µM | PC-3 > 25 µM | NCI-H226 > 25 µM | SK-MEL-28 26.9 µM | DLD-1 22.1 µM | K562 > 25 µM | SF-268 > 25 µM | SN12C > 25 µM | LOX IMVI > 25 µM | RXF 393 > 25 µM | DMS-273 20.9 µM | T47D > 25 µM | HCT-116 > 25 µM | A549 > 25 µM | NCI-H522 > 25 µM | HOP-62 > 25 µM

CCOc1ccccc1NC(=O)/C=C1\NC(=O)CS1
inactive: HT-29 > 100 µM | SW-620 > 100 µM | UO-31 > 100 µM | M19-MEL > 100 µM | NCI-H226 > 100 µM | SK-MEL-28 > 100 µM | DLD-1 > 100 µM | K562 > 100 µM | SF-268 > 100 µM | SN12C > 100 µM | LOX IMVI > 100 µM | RXF 393 > 100 µM | DMS-273 > 100 µM | HCT-116 > 100 µM | A549 > 100 µM | NCI-H522 86.1 µM | HOP-62 > 100 µM | HOP-92 > 100 µM

CCc1cccc(C(C)C)c1NC(=O)C(=O)C(CC(=O)Nc1ccc(Cl)c(Cl)c1)C(=O)OC (stereo not given)
inactive: HT-29 > 100 µM | SW-620 10 µM | UO-31 37.8 µM | M19-MEL 52.5 µM | NCI-H226 > 100 µM | SK-MEL-28 > 100 µM | DLD-1 31 µM | K562 10.9 µM | SF-268 > 100 µM | SN12C > 100 µM | LOX IMVI > 100 µM | RXF 393 > 100 µM | DMS-273 49.4 µM | HCT-116 34.3 µM | A549 > 100 µM | NCI-H522 78.9 µM | HOP-62 35.2 µM | HOP-92 51.3 µM
